In assay [1] the target is T1, Pyrococcus furiosus TrpB variant M144T N166D (Table 6 prints N166T), SEQ ID NO: 20 (Pyrococcus furiosus, UniProt Q8U093, M144T/N166D).
T1 sequence (Q8U093 with tags, fused parts or gaps M144T/N166D): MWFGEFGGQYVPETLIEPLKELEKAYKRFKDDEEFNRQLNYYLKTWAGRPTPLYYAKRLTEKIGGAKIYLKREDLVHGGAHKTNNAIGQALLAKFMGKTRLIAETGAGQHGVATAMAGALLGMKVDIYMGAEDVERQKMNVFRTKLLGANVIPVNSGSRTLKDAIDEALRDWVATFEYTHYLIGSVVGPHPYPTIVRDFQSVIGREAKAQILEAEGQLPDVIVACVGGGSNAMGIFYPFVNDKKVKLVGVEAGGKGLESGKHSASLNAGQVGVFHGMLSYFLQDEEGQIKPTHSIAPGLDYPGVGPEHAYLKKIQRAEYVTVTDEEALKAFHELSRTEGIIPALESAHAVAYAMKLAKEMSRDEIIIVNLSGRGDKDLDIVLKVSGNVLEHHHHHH
Put plainly: Tryptophan formation from L-serine and indole, kinetics of PfTrpB double mutant.

Assay [2] concerns Thermococcus kodakarensis TrpB, wild type (literature). The settings on record: cited from earlier work.
Assay [3] addresses T2, Pyrococcus furiosus tryptophan synthase beta-subunit PfTrpB, wild type, SEQ ID NO: 2 (Pyrococcus furiosus, UniProt Q8U093).
T2 sequence (Q8U093 with tags, fused parts or gaps): T1 sequence (Q8U093 with tags, fused parts or gaps M144T/N166D) with T144M, D166N
Put plainly: Tryptophan formation from L-serine and indole, kinetics of wild-type PfTrpB. Type of assay: biochemical. The settings on record: 75° C., pH 8.0, Trp formation at 290 nm. The protocol:
Cloning, Expression, and Purification of PfTrpA and PfTrpB. The genes encoding PfTrpB (UNIPROT ID Q8U093) and PfTrpA (UNIPROT ID Q8U094) were obtained as gBlocks and cloned into pET22(b)+ for expression in E. coli BL21 E. cloni EXPRESS cells (Lucigen). Heterologous protein expression of PfTrpA and PfTrpB was performed in Terrific Broth with 100 μg/mL ampicillin (TBamp) and induced with 500 mM IPTG (final concentration 1 mM). PfTrpB was purified via a HisTrap HP column. PfTrpA was purified via a Q HP HiTrap column (flow-through), followed by ammonium sulfate precipitation, and hydrophobic interaction chromatography on a phenyl Sepharose HP HiTrap column (FIG. 3).
Kinetics and UV-Vis Spectroscopy. Data were collected between 550 and 250 nm on a UV1800 Shimadzu spectrophotometer (Shimadzu) using 0.25-20 μM of enzyme in 200 mM potassium phosphate (pH 8.0) in a quartz cuvette. Samples were incubated at 75° C. for >3 min to ensure a stable temperature was reached. PfTrpB activity (kcat) was measured by monitoring tryptophan formation at 290 nm using Δe290=1.89 mM^−1·cm^−1.
Selection of the Parent Enzyme, TrpB, from Pyrococcus furiosus. […]

The values below come from US12534748B2, “Engineered beta-subunit of tryptophan synthase for production of non-canonical amino acids” (California Institute of Technology, priority 2015, dated 2026).

Substitutions are numbered along the chain they refer to. Several values for one entry are separate records, joined by “and”; a condition that tells them apart may be missing. Equal values may be shown once.

A word on the kcat: it is the number of substrate molecules converted per active site and unit of time at saturation. Usually Km stands for the substrate concentration at which the rate is half of its maximum. On to `c1ccc2[nH]ccc2c1` [indole], for which the kcat in assay [1] (75° C.) is 0.83 s⁻¹; in assay [2], 1.04 ± 0.03 s⁻¹; in assay [3], 0.31 s⁻¹ and 0.31 ± 0.02 s⁻¹. The kcat increase entry in assay [1] (M144T and N166D in PfTrpB) is recorded as “at least 2 fold”. In addition, the Michaelis-Menten constant (Km) in assay [2] (read-out: KM indole) is 63 ± 5 µM.
